# Biological target: T1, MAGL protein (Homo sapiens, UniProt Q99685)
# T1 sequence (Q99685 1-303): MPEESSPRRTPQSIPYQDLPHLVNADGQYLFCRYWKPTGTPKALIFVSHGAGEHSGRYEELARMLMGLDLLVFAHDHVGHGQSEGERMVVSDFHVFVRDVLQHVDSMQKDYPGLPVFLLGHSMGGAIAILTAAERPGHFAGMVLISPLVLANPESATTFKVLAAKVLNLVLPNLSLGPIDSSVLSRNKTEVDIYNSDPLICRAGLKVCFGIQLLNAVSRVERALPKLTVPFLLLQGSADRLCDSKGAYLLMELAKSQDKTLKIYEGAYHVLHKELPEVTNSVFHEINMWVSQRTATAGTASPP
# Assay: 2-AG assay: MAGL inhibitory activity by hydrolysis of 2-arachidonoylglycerol to arachidonic acid, followed by mass spectrometry
# Assay type: biochemical
# Settings: 8 μM 2-arachidonoylglycerol, 15 min preincubation, 30 min reaction at RT, RapidFire MS readout
# Procedure, shortened: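 Activity was measured by RapidFire SPE–triple-quad MS as the ratio of arachidonic acid to d8-arachidonic acid after 2-AG hydrolysis (8 μM substrate, 30 min, RT, acetonitrile quench). Compounds, tested from 12.5 μM down to […], were first preincubated 15 min with MAGL in TRIS/EDTA/Tween-20 buffer containing 2.5% DMSO.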
row,SMILES,IC50 [nM]
1,O=C(N1CC(C23CC(Cn4ccc(C(F)(F)F)cc4=O)(C2)C3)C1)N1CC2(CC(c3nc(C4CC4)n[nH]3)C2)C1 [compound 947],9.12
2,N=S(=O)(c1cnn(CC2CC3(C2)CN(C(=O)N2CC4(CC(c5nc(C6CC6)n[nH]5)C4)C2)C3)c1)C(F)(F)F (centres unmarked) [compound 950],3.03
3,CS(=O)(=O)c1cnn(CC2CC3(C2)CN(C(=O)N2CC4(CC(c5nc(C6CC6)n[nH]5)C4)C2)C3)c1 [compound 953],11.2
4,O=C(N1CC2(CC(c3nc(C4CC4)n[nH]3)C2)C1)N1CC2(CN(Cc3noc(C(F)(F)F)n3)C2)C1 [compound 957],97.3
5,O=C(N1CC2(CC(c3nc(C4CC4)n[nH]3)C2)C1)N1CC2(CN(Cc3nc(C4(C(F)(F)F)CC4)no3)C2)C1 [compound 959],7.44
6,O=C(N1CC2(CC(Cn3cc(C(F)(F)F)ncc3=O)C2)C1)N1CC2(CC(c3nc(C4CC4)n[nH]3)C2)C1 [compound 960],5.16
7,O=C(N1CC2(CC(Cc3ncn(CC(F)(F)F)n3)C2)C1)N1CC2(CC(c3nc(C4CC4)n[nH]3)C2)C1 [compound 962],4.41
8,O=C(N1CC2(CC(c3nc(C4CC4)n[nH]3)C2)C1)N1CC2(CN(Cc3ccc(OCC(F)(F)F)nc3)C2)C1 [compound 963],3.95
9,O=C(N1CC2(CC(c3nc(C4CC4)n[nH]3)C2)C1)N1CC2(CN(Cc3ccn(CCC(F)(F)F)n3)C2)C1 [compound 972],81.1
10,O=C(N1CC(C23CC(C(F)(F)c4ccc(C(F)(F)F)cc4)(C2)C3)C1)N1CC2(CC(c3nc(C4(O)CC4)n[nH]3)C2)C1 [compound 974],6.17
11,Cc1cc(C23CC(C4CN(C(=O)N5CC6(CC(c7nc(C8CC(F)(F)C8)n[nH]7)C6)C5)C4)(C2)C3)[nH]n1 [compound 975],1550
12,CS(=N)(=O)c1ccc(CC2CC3(C2)CN(C(=O)N2CC4(CC(c5nc(C6CC(F)(F)C6)n[nH]5)C4)C2)C3)cc1 (centres unmarked) [compound 976],1790
13,CS(=O)(=O)c1ccc(CC2CC3(C2)CN(C(=O)N2CC4(CC(c5nc(C6CC(F)(F)C6)n[nH]5)C4)C2)C3)nc1 [compound 977],2580
14,O=C(N1CC(c2cnc(N3CC(C(F)(F)F)C3)nc2)C1)N1CC2(CC(c3nc(C4CC(F)(F)C4)n[nH]3)C2)C1 [compound 978],2210
15,CS(=O)(=O)c1ccc(-c2ccc(C3CN(C(=O)N4CC5(CC(c6ncn[nH]6)C5)C4)C3)cc2)c(Cl)c1 [compound 981],1770
16,O=C(N1CC2(CC(c3ncn[nH]3)C2)C1)N1CC2(CC(c3ccc(C(F)(F)F)cc3F)C2)C1 [compound 982],4970
17,O=C(N1CC2(CC(CNC3(C(F)(F)F)CC3)C2)C1)N1CC2(CC(c3ncn[nH]3)C2)C1 [compound 983],2180
18,CS(=O)(=O)c1ccc(CC2CC3(C2)CN(C(=O)N2CC4(CC(c5ncn[nH]5)C4)C2)C3)cc1C(F)(F)F [compound 984],2770
19,O=C(N1CC2(CC(Cc3cc(C(F)(F)F)ccn3)C2)C1)N1CC2(CC(c3ncn[nH]3)C2)C1 [compound 985],2990
20,O=C(N1CC2(CC(Cc3ccc(C(F)(F)F)nc3)C2)C1)N1CC2(CC(c3ncn[nH]3)C2)C1 [compound 986],2360
21,O=C(N1CC2(CC(Cc3ccc(C(F)(F)F)cn3)C2)C1)N1CC2(CC(c3ncn[nH]3)C2)C1 [compound 987],2060
22,O=C(N1CC2(CC(Cc3ncc(F)cc3F)C2)C1)N1CC2(CC(c3ncn[nH]3)C2)C1 [compound 988],2070
23,O=C(N1CC2(CC(Cc3cn4cc(C(F)(F)F)nc4cn3)C2)C1)N1CC2(CC(c3nc(C4CC4)n[nH]3)C2)C1 [compound 991],2.03
24,O=C(N1CC2(CC(Cc3ccc4nnc(C(F)(F)F)n4c3)C2)C1)N1CC2(CC(c3nc(C4CC4)n[nH]3)C2)C1 [compound 995],2.74

# These reach a lower IC50. Values come first.
row,IC50 [nM],SMILES
1,1.74,CS(=N)(=O)c1ccc(CC2CC3(C2)CN(C(=O)N2CC4(CC(c5nc(C6CC6)n[nH]5)C4)C2)C3)cc1C(F)(F)F (centres unmarked) [compound 952]
2,1.48,O=C(N1CC2(CC(Cc3cc(C(F)F)c[nH]c3=O)C2)C1)N1CC2(CC(c3nc(C4CC4)n[nH]3)C2)C1 [compound 956]
3,1.42,O=C(N1CC2(CC(Cc3c[nH]c(=O)c(C(F)F)c3)C2)C1)N1CC2(CC(c3nc(C4CC4)n[nH]3)C2)C1 [compound 954]
4,1.32,O=C(N1CC(C23CC(COc4cc(C(F)(F)F)ccn4)(C2)C3)C1)N1CC2(CC(c3nc(C4CC4)n[nH]3)C2)C1 [compound 942]
5,1.05,O=C(N1CC(C23CC(Cn4cc(C(F)(F)F)ccc4=O)(C2)C3)C1)N1CC2(CC(c3nc(C4CC4)n[nH]3)C2)C1 [compound 946]
6,0.96,O=C(N1CC2(CC(c3nc(C4CC4)n[nH]3)C2)C1)N1CC2(CC(C(F)(F)c3cnc(C(F)(F)F)cn3)C2)C1 [compound 944]
7,0.8,O=C(N1CC2(CC(Cc3ccc4nc(C(F)(F)F)nn4c3)C2)C1)N1CC2(CC(c3nc(C4CC4)n[nH]3)C2)C1 [compound 993]
8,0.6,O=C(N1CC2(CC(Cc3cnc4cc(C(F)(F)F)nn4c3)C2)C1)N1CC2(CC(c3nc(C4CC4)n[nH]3)C2)C1 [compound 996]
9,0.59,O=C(N1CC2(CC(Cc3ccc4nc(C(F)(F)F)cn4c3)C2)C1)N1CC2(CC(c3nc(C4CC4)n[nH]3)C2)C1 [compound 990]
10,0.58,O=C(N1CC2(CC(c3ccc(C(F)(F)F)cc3)C2)C1)N1CC2(CC(c3nnc(C4CC4)[nH]3)C2)C1 [compound 940]
11,0.44,O=C(N1CC2(CC(Cn3cncc3C3(C(F)(F)F)CC3)C2)C1)N1CC2(CC(c3nc(C4CC4)n[nH]3)C2)C1 [compound 964]
12,0.42,O=C(N1CC2(CC(Oc3cc(C(F)(F)F)ccn3)C2)C1)N1CC2(CC(c3nc(C4CC4)n[nH]3)C2)C1 [compound 969]
13,0.28,O=C(N1CC2(CC(Cn3cc(S(=O)(=O)C(F)(F)F)cn3)C2)C1)N1CC2(CC(c3nc(C4CC4)n[nH]3)C2)C1 [compound 951]
14,0.27,O=C(N1CC2(CC(Cn3nccc3C3CC3)C2)C1)N1CC2(CC(c3nc(C4CC4)n[nH]3)C2)C1 [compound 973]
15,0.18,Cc1cc([C@H](C)C2CC3(C2)CN(C(=O)N2CC4(CC(c5nc(C6CC6)n[nH]5)C4)C2)C3)ncc1C(F)(F)F [compound 967]
16,0.16,O=C(N1CC(C23CC(Cn4cc(C(F)(F)F)cn4)(C2)C3)C1)N1CC2(CC(c3nc(C4CC4)n[nH]3)C2)C1 [compound 949]
17,0.16,O=C(N1CC2(CC(COc3ccc(C(F)(F)F)cn3)C2)C1)N1CC2(CC(c3nc(C4CC4)n[nH]3)C2)C1 [compound 970]
18,0.16,O=C(N1CC2(CC(Cc3ccc4cnc(C(F)(F)F)n4c3)C2)C1)N1CC2(CC(c3nc(C4CC4)n[nH]3)C2)C1 [compound 992]
19,0.14,Cc1cc([C@@H](C)C2CC3(C2)CN(C(=O)N2CC4(CC(c5nc(C6CC6)n[nH]5)C4)C2)C3)ncc1C(F)(F)F [compound 966]
20,0.09,COc1nc(C(F)(F)F)cnc1CC1CC2(C1)CN(C(=O)N1CC3(CC(c4nc(C5CC5)n[nH]4)C3)C1)C2 [compound 943]
21,0.07,O=C(N1CC2(CC(Cc3cc(C4(C(F)(F)F)CC4)[nH]n3)C2)C1)N1CC2(CC(c3nc(C4CC4)n[nH]3)C2)C1 [compound 945]
22,0.06,O=C(N1CC2(CC(Cc3ccc4[nH]nc(C(F)(F)F)c4c3)C2)C1)N1CC2(CC(c3nc(C4CC4)n[nH]3)C2)C1 [compound 994]
23,0.05,O=C(N1CC(c2ccc(C3(S(=O)(=O)C(F)(F)F)CC3)cc2)C1)N1CC2(CC(c3nc(C4CC4)n[nH]3)C2)C1 [compound 968]
24,0.05,O=C(N1CC2(CC(Cc3ccc4c(C(F)(F)F)n[nH]c4c3)C2)C1)N1CC2(CC(c3nc(C4CC4)n[nH]3)C2)C1 [compound 989]
25,0.04,O=C(N1CC(C23CC(COc4ccc(C(F)(F)F)cn4)(C2)C3)C1)N1CC2(CC(c3nc(C4CC4)n[nH]3)C2)C1 [compound 941]
26,0.03,CC(C)Oc1nc(CC2CC3(C2)CN(C(=O)N2CC4(CC(c5nc(C6CC6)n[nH]5)C4)C2)C3)ccc1C(F)(F)F [compound 965]

# Reference: patent US20250099448A1, “HETEROCYCLIC COMPOUNDS” (Hoffmann-La Roche Inc., priority 2022, published 2025)
